From patent publication US5041567A, “Antibacterial monic acid derivatives” (Beecham Group plc, priority 1982, dated 1991)
Values after ≈ are worked out from the molar mass of the structure shown. Read-outs that look alike come from different tables or passages of the source.

Assays:
E. coli ESS = assay: MIC against human bacteria in vitro; format: cell-based; conditions: Escherichia coli
[1] = system: Neisseria catarrhalis 1502; assay: MIC against human bacteria in vitro; format: cell-based
M. suipneumoniae MS 16 = assay: MIC against mycoplasma in vitro; format: cell-based; conditions: Mesomycoplasma hyopneumoniae, MS16, 144 h; M. suipneumoniae MS 16; 6 days, 37° C.; read-out: MIC
Strep. agalactiae 2788-B = assay: MIC against human bacteria in vitro; format: cell-based; conditions: Streptococcus agalactiae; Strep. agalactiae 2788-B; 5% chocolated horse blood agar, 18 hours; read-out: MIC
M. hyorhinis ATCC 25021 = assay: MIC against mycoplasma in vitro; format: cell-based; conditions: Mesomycoplasma hyorhinis, ATCC25021, 144 h; M. hyorhinis ATCC 25021; 6 days, 37° C.; read-out: MIC
K. aerogenes A = assay: MIC against human bacteria in vitro; format: cell-based; conditions: Klebsiella aerogenes; K. aerogenes A; 5% chocolated horse blood agar, 18 hours; read-out: MIC
[2] = system: Corynebacterium pyogenes CY1; assay: MIC against veterinary bacteria in vitro; conditions: CY1, 18 h
Experimental: (§1) The activity of the compounds of the Examples against various veterinarily important bacteria, was assayed in vitro using two-fold serial dilutions in Diagnostic Sensitivity Test Agar inoculated with 10^4 organisms.

[3] = system: Ps. aeruginosa NCTC 10662; assay: MIC against human bacteria in vitro; format: cell-based; conditions: Pseudomonas aeruginosa, NCTC10662; Ps. aeruginosa NCTC 10662; 5% chocolated horse blood agar, 18 hours; read-out: MIC
[4] = system: M. bovigenitalium ATCC 14173; assay: MIC against mycoplasma in vitro; format: cell-based; conditions: 144 h
M. suipneumoniae TAM 6N = assay: MIC against mycoplasma in vitro; format: cell-based; conditions: Mesomycoplasma hyopneumoniae, TAM6N, 144 h; M. suipneumoniae TAM 6N; 6 days, 37° C.; read-out: MIC
Strep. uberis SPU1 = assay: MIC against veterinary bacteria in vitro; conditions: Streptococcus uberis, SPU1, 18 h
Experimental: as §1

Past. multocida PA2 = assay: MIC against veterinary bacteria in vitro; conditions: Pasteurella multocida, PA2, 18 h
Experimental: as §1

S. typhimurium S18 = assay: MIC against veterinary bacteria in vitro; conditions: Salmonella enterica, TYPHIMURIUM, 18 h
Experimental: as §1

[5] = system: M. suipneumoniae ATCC 25095; assay: MIC against mycoplasma in vitro; format: cell-based; conditions: Mesomycoplasma hyopneumoniae, ATCC25095, 144 h; M. suipneumoniae ATCC 25095; 6 days, 37° C.; read-out: MIC
S. dublin S7 = assay: MIC against veterinary bacteria in vitro; conditions: Salmonella enterica, S7, 18 h
Experimental: as §1

Strep. dysgalactiae SPD1 = assay: MIC against veterinary bacteria in vitro; conditions: Streptococcus dysgalactiae, SPD1, 18 h
Experimental: as §1

Strep. faecalis I = assay: MIC against human bacteria in vitro; format: cell-based; conditions: Enterococcus faecalis; Strep. faecalis I; 5% chocolated horse blood agar, 18 hours; read-out: MIC
Staph. aureus Oxford = assay: MIC against veterinary bacteria in vitro; conditions: Staphylococcus aureus, 18 h
Experimental: as §1

M. suipneumoniae LABER = assay: MIC against mycoplasma in vitro; format: cell-based; conditions: Mesomycoplasma hyopneumoniae, 144 h; M. suipneumoniae LABER; 6 days, 37° C.; read-out: MIC
Staph. aureus Russell = assay: MIC against human bacteria in vitro; format: cell-based; conditions: Staphylococcus aureus
Strep. pneumoniae CN33 = assay: MIC against human bacteria in vitro; format: cell-based; conditions: Streptococcus pneumoniae
[6] = system: Corynebacterium xerosis 9755; assay: MIC against human bacteria in vitro; format: cell-based; conditions: Corynebacterium xerosis 9755; 5% chocolated horse blood agar, 18 hours; read-out: MIC
Bacillus subtilis 6633 = assay: MIC against human bacteria in vitro; format: cell-based; conditions: Bacillus subtilis 6633; 5% chocolated horse blood agar, 18 hours; read-out: MIC
E. coli NCTC 10418 = assay: MIC against human bacteria in vitro; format: cell-based; conditions: Escherichia coli
M. hyorhinis ATCC 23234 = assay: MIC against mycoplasma in vitro; format: cell-based; conditions: Mesomycoplasma hyorhinis, ATCC23234, 144 h; M. hyorhinis ATCC 23234; 6 days, 37° C.; read-out: MIC
M. suipneumoniae NB12 = assay: MIC against mycoplasma in vitro; format: cell-based; conditions: Mesomycoplasma hyopneumoniae
[7] = system: Staph. aureus 152 (pen. sens); assay: MIC against veterinary bacteria in vitro; conditions: Staphylococcus aureus, 18 h
Experimental: as §1

[8] = system: Haemophilus influenzae Wy21; assay: MIC against human bacteria in vitro; format: cell-based; conditions: Haemophilus influenzae Wy21; 5% chocolated horse blood agar, 18 hours; read-out: MIC
[9] = system: Erysipelothrix rhusiopathiae NCTC 8163; assay: MIC against veterinary bacteria in vitro; conditions: Erysipelothrix rhusiopathiae, NCTC8163, 18 h
Experimental: as §1

Sarcina lutea 8340 = assay: MIC against human bacteria in vitro; format: cell-based; conditions: Micrococcus luteus; Sarcina lutea 8340; 5% chocolated horse blood agar, 18 hours; read-out: MIC
Staph. aureus W2827 = assay: MIC against human bacteria in vitro; format: cell-based; conditions: Staphylococcus aureus
M. suipneumoniae Str. 11 = assay: MIC against mycoplasma in vitro; format: cell-based; conditions: Mesomycoplasma hyopneumoniae, 144 h; M. suipneumoniae Str. 11; 6 days, 37° C.; read-out: MIC
[10] = system: Strep. pyogenes R80/421-A; assay: MIC against human bacteria in vitro; format: cell-based; conditions: Streptococcus pyogenes; Strep. pyogenes R80/421-A; 5% chocolated horse blood agar, 18 hours; read-out: MIC
Strep. spp. 64/848-C = assay: MIC against human bacteria in vitro; format: cell-based; conditions: Strep. spp. 64/848-C; 5% chocolated horse blood agar, 18 hours; read-out: MIC
M. suipneumoniae HK(2) = assay: MIC against mycoplasma in vitro; format: cell-based; conditions: Mesomycoplasma hyopneumoniae, 144 h; M. suipneumoniae HK(2); 6 days, 37° C.; read-out: MIC
[11] = E. coli ESS, 5% chocolated horse blood agar, 18 hours, read-out: MIC
[12] = NCTC10418, E. coli NCTC 10418, agar with 5% chocolated horse blood, 18 hours, 37° C., read-out: MIC
[13] = 144 h, M. suipneumoniae NB12, Friis broth, 0.9% agarose, 6 days, 37° C., read-out: MIC
[14] = Staph. aureus Russell, 5% chocolated horse blood agar, 18 hours, read-out: MIC
[15] = Staph. aureus W2827, 5% chocolated horse blood agar, 18 hours, read-out: MIC

Compound | MIC (M. suipneumoniae MS 16) | MIC (Strep. agalactiae 2788-B) | MIC (M. hyorhinis ATCC 25021) | MIC (K. aerogenes A) | MIC [2] | MIC [3] | MIC (M. suipneumoniae TAM 6N) | MIC (Strep. uberis SPU1) | MIC (Past. multocida PA2) | MIC (S. typhimurium S18) | MIC [5] | MIC (S. dublin S7) | MIC (Strep. dysgalactiae SPD1) | MIC (Strep. faecalis I) | MIC (Staph. aureus Oxford) | MIC (M. suipneumoniae LABER) | MIC [6] | MIC (Bacillus subtilis 6633) | MIC (M. hyorhinis ATCC 23234) | MIC [7] | other results
C/C(=C\c1ncc(-c2cccc(C#N)c2)o1)C[C@@H]1OC[C@H](C[C@@H]2O[C@H]2[C@@H](C)[C@H](C)O)[C@@H](O)[C@H]1O [Example 5, 5-m-cyanophenyl-2-(1-normon-2-yl)oxazole A] | 0.05 µg/mL (≈ 0.107 µM) | 2.5 µg/mL (≈ 5.34 µM) | 0.05 µg/mL (≈ 0.107 µM) | > 50 µg/mL | 80 µg/mL (≈ 171 µM) | > 50 µg/mL | 0.1 µg/mL (≈ 0.213 µM) | 0.07 µg/mL (≈ 0.149 µM) | 2.5 µg/mL (≈ 5.34 µM) | > 80 µg/mL | 0.05 µg/mL (≈ 0.107 µM) | > 80 µg/mL | 0.312 µg/mL (≈ 0.666 µM) | 50 µg/mL (≈ 107 µM) | 0.625 µg/mL (≈ 1.33 µM) | 0.05 µg/mL (≈ 0.107 µM) | > 50 µg/mL | 1.2 µg/mL (≈ 2.56 µM) | 0.05 µg/mL (≈ 0.107 µM) | 0.625 µg/mL (≈ 1.33 µM) | MIC (E. coli ESS; [11]): 1.2 µg/mL (≈ 2.56 µM); MIC ([1]; Neisseria, 1502, 18 h): 5 µg/mL (≈ 10.7 µM); MIC [4]: 0.025 µg/mL (≈ 0.0534 µM); MIC (Staph. aureus Russell; 18 h): 5 µg/mL (≈ 10.7 µM); MIC (Strep. pneumoniae CN33; Strep. pneumoniae CN33, 5% chocolated horse blood agar, 18 hours, read-out: MIC): 2.5 µg/mL (≈ 5.34 µM); MIC (E. coli NCTC 10418; [12]): > 50 µg/mL; MIC (M. suipneumoniae NB12; [13]): 0.05 µg/mL (≈ 0.107 µM); MIC [8]: 1.2 µg/mL (≈ 2.56 µM); MIC [9]: 80 µg/mL (≈ 171 µM); MIC (Sarcina lutea 8340): > 50 µg/mL; MIC (Staph. aureus W2827; W2827, 18 h): 5 µg/mL (≈ 10.7 µM); MIC (M. suipneumoniae Str. 11): 0.05 µg/mL (≈ 0.107 µM)
C/C(=C\c1ncc(Cc2ccccc2)o1)C[C@@H]1OC[C@H](C[C@@H]2O[C@H]2[C@@H](C)[C@H](C)O)[C@@H](O)[C@H]1O [Example 27, 5-Benzyl-2-(1-normon-2-yl)oxazole A] | 5 µg/mL (≈ 10.9 µM) | 16 µg/mL (≈ 35 µM) | 5 µg/mL (≈ 10.9 µM) | > 64 µg/mL | > 80 µg/mL | > 64 µg/mL | 10 µg/mL (≈ 21.9 µM) | 1.25 µg/mL (≈ 2.73 µM) | 5 µg/mL (≈ 10.9 µM) | > 80 µg/mL | 5 µg/mL (≈ 10.9 µM) | > 80 µg/mL | 2.5 µg/mL (≈ 5.46 µM) | > 64 µg/mL | 10 µg/mL (≈ 21.9 µM) | 5 µg/mL (≈ 10.9 µM) | > 64 µg/mL | 4 µg/mL (≈ 8.74 µM) | 10 µg/mL (≈ 21.9 µM) | 10 µg/mL (≈ 21.9 µM) | MIC (E. coli ESS; [11]): 16 µg/mL (≈ 35 µM); MIC [4]: 0.25 µg/mL (≈ 0.546 µM); MIC [10]: 4 µg/mL (≈ 8.74 µM); MIC (Strep. spp. 64/848-C): 16 µg/mL (≈ 35 µM); MIC (Staph. aureus Russell; [14]): 16 µg/mL (≈ 35 µM); MIC (E. coli NCTC 10418; [12]): > 64 µg/mL; MIC (M. suipneumoniae NB12; NB12, 144 h): 5 µg/mL (≈ 10.9 µM); MIC (M. suipneumoniae HK(2)): 10 µg/mL (≈ 21.9 µM); MIC [8]: 2 µg/mL (≈ 4.37 µM); MIC [9]: > 80 µg/mL; MIC (Sarcina lutea 8340): > 64 µg/mL; MIC (Staph. aureus W2827; [15]): 16 µg/mL (≈ 35 µM); MIC (M. suipneumoniae Str. 11): 5 µg/mL (≈ 10.9 µM)
C/C(=C\c1nc(C)c(C)o1)C[C@@H]1OC[C@H](C[C@@H]2O[C@H]2[C@@H](C)[C@H](C)O)[C@@H](O)[C@H]1O [Example 39, 4,5-Dimethyl-2-(1-normon-2-yl)oxazole A] | > 10 µg/mL | > 100 µg/mL | > 10 µg/mL | > 100 µg/mL | > 80 µg/mL | > 100 µg/mL | > 10 µg/mL | > 80 µg/mL | 40 µg/mL (≈ 101 µM) | > 80 µg/mL | > 10 µg/mL | > 80 µg/mL | > 80 µg/mL | > 100 µg/mL | > 80 µg/mL | > 10 µg/mL | > 100 µg/mL | > 100 µg/mL | > 10 µg/mL | > 80 µg/mL | MIC (E. coli ESS; 18 h): > 100 µg/mL; MIC ([1]; Neisseria catarrhalis 1502, 5% chocolated horse blood agar, 18 hours, read-out: MIC): 25 µg/mL (≈ 63.2 µM); MIC ([4]; M. bovigenitalium ATCC 14173, 6 days, 37° C., read-out: MIC): 5 µg/mL (≈ 12.6 µM); MIC (Staph. aureus Russell; [14]): > 100 µg/mL; MIC (Strep. pneumoniae CN33; CN33, 18 h): 100 µg/mL (≈ 253 µM); MIC (E. coli NCTC 10418; NCTC10418, 18 h): > 100 µg/mL; MIC (M. suipneumoniae NB12; [13]): > 10 µg/mL; MIC (M. suipneumoniae HK(2)): > 10 µg/mL; MIC [8]: 2.5 µg/mL (≈ 6.32 µM); MIC [9]: > 80 µg/mL; MIC (Sarcina lutea 8340): > 100 µg/mL; MIC (Staph. aureus W2827; [15]): > 100 µg/mL; MIC (M. suipneumoniae Str. 11): > 10 µg/mL
